Measured values: the NIST ThermoML archive (doi:10.1021/acs.jced.7b00347)
± gives the expanded uncertainty stated by the source.

Experiment: mn = molality of the nth substance listed, in mol/kg
Conditions: for surface tension liquid-gas: Ring tensiometer; for electrical conductivity: 100 kPa, Liquid, Alternating current cell with electrodes

CCCCCCCC[NH+](CCO)CC(C)O.[Cl-] (stereo not given) + O
Conditions | electrical conductivity [S/m] | surface tension liquid-gas [mN/m]
303.15 K, m1 = 1.867e-05 | – | 53.53 ± 0.7
303.15 K, m1 = 1.87e-05 | 0.00091 ± 5.1e-05 | –
303.15 K, m1 = 3.73e-05 | 0.00101 ± 5.6e-05 | –
303.15 K, m1 = 3.733e-05 | – | 47.58 ± 0.63
303.15 K, m1 = 5.6e-05 | 0.0011 ± 6.1e-05 | –
303.15 K, m1 = 7.47e-05 | 0.0012 ± 6.6e-05 | –
303.15 K, m1 = 9.33e-05 | 0.00129 ± 8.2e-05 | –
303.15 K, m1 = 9.334e-05 | – | 40.08 ± 0.54
303.15 K, m1 = 0.000112 | 0.00139 ± 8e-05 | –
303.15 K, m1 = 0.0001307 | 0.00149 ± 8.3e-05 | –
303.15 K, m1 = 0.0001493 | 0.00158 ± 8.8e-05 | –
303.15 K, m1 = 0.000168 | 0.00168 ± 9.3e-05 | –
303.15 K, m1 = 0.0001867 | 0.00177 ± 9.8e-05 | 34.17 ± 0.48
303.15 K, m1 = 0.0002053 | 0.00187 ± 0.00029 | –
303.15 K, m1 = 0.000224 | 0.00197 ± 0.00011 | –
303.15 K, m1 = 0.0002427 | 0.00206 ± 0.00012 | –
303.15 K, m1 = 0.0002614 | 0.00216 ± 0.00012 | –
303.15 K, m1 = 0.00028 | 0.00225 ± 0.00015 | 31.17 ± 0.45
303.15 K, m1 = 0.0002987 | 0.00235 ± 0.00033 | –
303.15 K, m1 = 0.0003174 | 0.00245 ± 0.00014 | –
303.15 K, m1 = 0.000336 | 0.00254 ± 0.00014 | –
303.15 K, m1 = 0.0003472 | – | 29.47 ± 0.43
303.15 K, m1 = 0.0003547 | 0.00264 ± 0.00017 | –
303.15 K, m1 = 0.0003734 | 0.00273 ± 0.00015 | –
303.15 K, m1 = 0.000392 | 0.00283 ± 0.00017 | –
303.15 K, m1 = 0.0004166 | 0.00292 ± 0.0016 | –
303.15 K, m1 = 0.0004412 | 0.00302 ± 0.00017 | –
303.15 K, m1 = 0.000448 | – | 29.31 ± 0.43
303.15 K, m1 = 0.0004658 | 0.00311 ± 0.00017 | –
303.15 K, m1 = 0.0004905 | 0.00321 ± 0.00018 | –
303.15 K, m1 = 0.0005151 | 0.0033 ± 0.00021 | –
303.15 K, m1 = 0.0005397 | 0.0034 ± 0.00019 | –
303.15 K, m1 = 0.0005643 | 0.00349 ± 0.00019 | –
303.15 K, m1 = 0.0005889 | 0.00359 ± 0.0002 | –
303.15 K, m1 = 0.0006135 | 0.00368 ± 0.0002 | –
303.15 K, m1 = 0.0006381 | 0.00378 ± 0.00021 | –
303.15 K, m1 = 0.0006627 | 0.00387 ± 0.00021 | –
303.15 K, m1 = 0.0006873 | 0.00397 ± 0.00022 | –
303.15 K, m1 = 0.0007119 | 0.00406 ± 0.00022 | –
303.15 K, m1 = 0.0007365 | 0.00416 ± 0.00023 | –
303.15 K, m1 = 0.0007611 | 0.00425 ± 0.00023 | –
303.15 K, m1 = 0.0007857 | 0.00435 ± 0.00024 | –
303.15 K, m1 = 0.0008104 | 0.00444 ± 0.00024 | –
303.15 K, m1 = 0.000835 | 0.00454 ± 0.00025 | –
303.15 K, m1 = 0.0008596 | 0.00463 ± 0.00026 | –
303.15 K, m1 = 0.0008842 | 0.00473 ± 0.00026 | –
303.15 K, m1 = 0.0009088 | 0.00482 ± 0.00027 | –
303.15 K, m1 = 0.0009334 | 0.00492 ± 0.00027 | 28.79 ± 0.43
303.15 K, m1 = 0.001867 | – | 28.54 ± 0.42
303.15 K, m1 = 0.0028 | – | 28.22 ± 0.42
303.15 K, m1 = 0.003733 | – | 28.02 ± 0.42
308.15 K, m1 = 1.867e-05 | – | 51.25 ± 0.67
308.15 K, m1 = 1.87e-05 | 0.00111 ± 6.2e-05 | –
308.15 K, m1 = 3.733e-05 | – | 45.75 ± 0.61
308.15 K, m1 = 4.28e-05 | 0.00126 ± 7.1e-05 | –
308.15 K, m1 = 6.7e-05 | 0.00141 ± 8e-05 | –
308.15 K, m1 = 9.11e-05 | 0.00156 ± 9e-05 | –
308.15 K, m1 = 9.334e-05 | – | 38.42 ± 0.53
308.15 K, m1 = 0.0001152 | 0.00171 ± 9.9e-05 | –
308.15 K, m1 = 0.0001394 | 0.00186 ± 0.00011 | –
308.15 K, m1 = 0.0001635 | 0.00201 ± 0.00012 | –
308.15 K, m1 = 0.0001867 | – | 32.93 ± 0.47
308.15 K, m1 = 0.0001877 | 0.00216 ± 0.00013 | –
308.15 K, m1 = 0.0002118 | 0.00231 ± 0.00014 | –
308.15 K, m1 = 0.000236 | 0.00246 ± 0.00015 | –
308.15 K, m1 = 0.0002601 | 0.00261 ± 0.00016 | –
308.15 K, m1 = 0.0002842 | 0.00276 ± 0.00017 | –
308.15 K, m1 = 0.0002949 | – | 29.72 ± 0.44
308.15 K, m1 = 0.0003084 | 0.00291 ± 0.00018 | –
308.15 K, m1 = 0.0003325 | 0.00306 ± 0.00019 | –
308.15 K, m1 = 0.0003472 | – | 28.63 ± 0.43
308.15 K, m1 = 0.0003567 | 0.00321 ± 0.0002 | –
308.15 K, m1 = 0.0003808 | 0.00336 ± 0.00021 | 28.46 ± 0.42
308.15 K, m1 = 0.0004099 | 0.00348 ± 0.00022 | –
308.15 K, m1 = 0.000439 | 0.0036 ± 0.00023 | –
308.15 K, m1 = 0.0004681 | 0.00373 ± 0.00023 | –
308.15 K, m1 = 0.0004972 | 0.00385 ± 0.00024 | –
308.15 K, m1 = 0.0005262 | 0.00397 ± 0.00025 | –
308.15 K, m1 = 0.0005553 | 0.0041 ± 0.00026 | –
308.15 K, m1 = 0.0005844 | 0.00422 ± 0.00026 | –
308.15 K, m1 = 0.0006135 | 0.00434 ± 0.00026 | –
308.15 K, m1 = 0.0006426 | 0.00447 ± 0.00027 | –
308.15 K, m1 = 0.0006716 | 0.00459 ± 0.00028 | –
308.15 K, m1 = 0.0007007 | 0.00471 ± 0.00028 | –
308.15 K, m1 = 0.0007298 | 0.00483 ± 0.00029 | –
308.15 K, m1 = 0.0007589 | 0.00496 ± 0.0003 | –
308.15 K, m1 = 0.000788 | 0.00508 ± 0.0003 | –
308.15 K, m1 = 0.0008171 | 0.0052 ± 0.00031 | –
308.15 K, m1 = 0.0008461 | 0.00533 ± 0.00031 | –
308.15 K, m1 = 0.0008752 | 0.00545 ± 0.00032 | –
308.15 K, m1 = 0.0009043 | 0.00557 ± 0.00032 | –
308.15 K, m1 = 0.0009334 | 0.0057 ± 0.00033 | 27.95 ± 0.42
308.15 K, m1 = 0.001867 | – | 27.78 ± 0.42
308.15 K, m1 = 0.0028 | – | 27.44 ± 0.41
308.15 K, m1 = 0.003733 | – | 27.36 ± 0.41
